Biological target: T1, human renin (Homo sapiens, UniProt P00797)
T1 sequence (P00797 67-406): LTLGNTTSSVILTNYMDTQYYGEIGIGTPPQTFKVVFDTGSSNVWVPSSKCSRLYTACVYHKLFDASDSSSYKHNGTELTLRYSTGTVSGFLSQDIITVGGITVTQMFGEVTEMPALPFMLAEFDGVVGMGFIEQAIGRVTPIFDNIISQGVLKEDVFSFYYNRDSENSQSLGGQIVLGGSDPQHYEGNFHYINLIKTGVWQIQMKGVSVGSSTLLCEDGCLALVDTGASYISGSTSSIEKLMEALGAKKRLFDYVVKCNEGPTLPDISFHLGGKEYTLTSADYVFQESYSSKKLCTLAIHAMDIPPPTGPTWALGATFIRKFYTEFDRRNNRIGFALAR
Test: Inhibition of renin activity
Format: biochemical
Conditions: 1×10^-6 M of the test compound, sheep angiotensinogen, pH 7.3, 10 minutes at 37° C., mean of 3 or 4 experiments
Method: The ability of various compounds of the invention to inhibit the activity of renin was determined according to the following method, which follows essentially the procedure of Kokubu et al. [Hypertension, 5, 191-197 (1983)].
Specifically, each test compound was dissolved in 60% v/v aqueous ethanol. Human renin activity in the presence and absence of each compound was measured using sheep angiotensinogen. The total volume of 1 ml of assay mixture contained 0.1 mole/litre phosphate buffer (pH 7.3), human renin (equivalent to 0.5 ng angiotensin I per ml per minute), sheep angiotensinogen (equivalent to 200 ng angiotensin I) 1×10^-6 M of the test compound, 6% v/v ethanol and angiotensinase inhibitors (10 mmole/litre sodium ethylenediaminetetraacetate and 3.4 mmole/litre 8-hydroxyquinoline). The mixture was allowed to react for 10 minutes at 37° C., and then the reaction was stopped by placing the reaction tube in a boiling water bath for 5 minutes. The mixture was then centrifuged and the supernatant (0.05-0.1 ml) was used to assay remaining angiotensin I.
An identical experiment was carried out, as a control, except that the test compound was omitted. From the values obtained were calculated the % inhibition of renin activity achieved by each test compound. The results are shown in the following Table 9, in which the compounds of the invention are identified by the numbers of the Examples given hereafter in which are described their preparation. The values given are the mean of 3 or 4 experiments.

Row | Molecule | Inhibitory Activity (%)
1 | CCCCCCNC(=O)C[C@H](O)[C@H](CC1CCCCC1)NC(=O)[C@H](Cc1cscn1)NC(=O)[C@H](Cc1cccc2ccccc12)NC(=O)CN1CCOCC1 [Example 110, N-{N-[N-Morpholinoacetyl-3-(1-naphthyl)-L-alanyl]-3-(4-thiazolyl)-L-alanyl}-cyclostatin-hexylamide] | 98.3
2 | CC(C)CCNC(=O)C[C@H](O)[C@H](CC1CCCCC1)NC(=O)[C@H](Cc1cscn1)NC(=O)[C@H](Cc1cccc2ccccc12)NC(=O)CN(C)Cc1ccccc1 [Example 111, N-{N-[N-(Benzyl-N-methylaminoacetyl)-3-(1-naphthyl)-L-alanyl]-3-(4-thiazolyl)-L-alanyl}-cyclostatin-isopentylamide] | 96.0
3 | CCCCNC(=O)C[C@H](O)[C@H](CC1CCCCC1)NC(=O)[C@H](Cc1cscn1)NC(=O)[C@H](Cc1cccc2ccccc12)NC(=O)CN(C)C1CCCCC1 [Example 112, N-{N-[N-(N-Cyclohexyl-N-methylaminoacetyl)-3-(1-naphthyl)-L-alanyl]-3-(4-thiazolyl)-L-alanyl}-cyclostatin-butylamide] | 98.0
4 | N-{N-[(2R)-2-(1-Naphthylmethyl)-3-thiomorpholinocarbonylpropionyl]-3-(4-thiazolyl)-DL-alanyl}-cyclostatin-(2-morpholinoethyl)amide [Example 9] | 94.0
5 | N-{N-[N-(N-Benzyl-N-ethylaminoacetyl)-3-(1-naphthyl)-L-alanyl]-L-leucyl}-cyclostatin-(2-morpholinoethyl)amide [Example 69] | 96.1
6 | N-{N-[N-(N-Benzyl-N-methylaminoacetyl)-3-(1-naphthyl)-L-alanyl]-L-tryptophyl}-cyclostatin-[3-(2-oxo-1-pyrrolidinyl)propyl]amide [Example 76] | 97.1
